Read-outs that look alike come from different tables or passages of the source.
Experiments:
HDAC2 = test system: HDAC2; set-up: method as in PMID 34965958; settings: cell-free; cited from earlier work
[1] = plasma pharmacokinetics by LC-MS/MS in patients; format: in vivo, human; settings: for Tmax: read-out: Tmax of OKI-006 (Free)
Experimental: Blood samples were collected immediately prior to the first dose on cycle 1 and day 1, and then at 0.25, 0.5, 1, 2, 4, 8, and 24 h after taking OKI-179 on days 1 and 15. Additional samples were collected pre-dose and 2 and 4 h after OKI-179 administration on day 18 in later cohorts. Blood samples were stabilized with sodium fluoride and formic acid immediately after collection to arrest the additional conversion of the prodrug OKI-179 to OKI-006. Plasma was further stabilized using ascorbic acid prior to low-temperature storage.
Plasma concentrations of OKI-179 and OKI-006 were analyzed using validated liquid chromatography-mass spectrometry (LC-MS/MS) (Quintara Discovery Inc., Hayward, CA, USA). OKI-006 contains a free thiol moiety that can reversibly react with endogenous molecules in the blood and tissue, resulting in “bound” OKI-006. The unreacted OKI-006 is considered “free”. As bound OKI-006 can reversibly convert to free OKI-006 in vivo, both the free and “total” (free plus bound) concentrations of OKI-006 are considered pharmacologically relevant and were therefore quantified as part of this study. Bioanalytically, the total OKI-006 was measured by chemically converting all bound OKI-006 to free OKI-006 prior to analysis using the free OKI-006 bioanalytical method.
The AUClast was calculated from time zero to the time of the last quantifiable concentration for OKI-179, free OKI-006, and total OKI-006.

HDAC3 = test system: HDAC3; set-up: method as in PMID 34965958; settings: cell-free; cited from earlier work
HDAC8 = test system: HDAC8; set-up: method as in PMID 34965958; settings: cell-free; cited from earlier work
Class IIa HDACs = test system: Class IIa HDACs; set-up: method as in PMID 34965958; settings: cited from earlier work
HDAC1 = test system: HDAC1; set-up: method as in PMID 34965958; settings: cell-free; cited from earlier work
[2] = OKI-179 300-mg 5:2, Cycle 1 Day 1, geometric mean
[3] = OKI-179 300-mg 5:2, Cycle 1 Day 15, geometric mean

AUClast of OKI-006 (Free) [1, 2]: 2790 ng·h/mL
MRAUC, OKI-006 (Free) to OKI-179 metabolite ratio based on AUClast [1, 2]: 13.3
AUClast of OKI-006 (Free) [1, 3]: 3180 ng·h/mL
Cmax of OKI-006 (Free) [1, 3]: 2220 ng/mL
MRAUC, OKI-006 (Free) to OKI-179 metabolite ratio based on AUClast [1, 3]: 10.3
Tmax ([1]; human, plasma, oral, 300 mg, OKI-179 300-mg 5:2, Cycle 1 Day 1, median): 41.5 min
Tmax ([1]; human, plasma, oral, 300 mg, OKI-179 300-mg 5:2, Cycle 1 Day 15, median): 56 min
half-life ([1]; human, plasma, oral, 300 mg, OKI-179 300-mg 5:2, Cycle 1 Day 15, median, read-out: t1/2 of OKI-006 (Free) (converted)): 206 min
SMILES: CC(C)[C@@H]1NC(=O)C(C)(C)NC(=O)c2csc(n2)CNC(=O)C[C@@H](/C=C/CCS)OC1=O [OKI-006]
IC50 (HDAC2): 2.4 nM
Cmax and AUC versus preclinical threshold for efficacy ([1]; OKI-179 doses of 200 mg or greater): exceeded the preclinical threshold for efficacy
IC50 (HDAC3): 2 nM
IC50 (HDAC8): 47 nM
IC50 (Class IIa HDACs): > 1000 nM
IC50 (HDAC1): 1.2 nM
